# Experimental data reported in PMC9046208, “Foldamers reveal and validate therapeutic targets associated with toxic α-synuclein self-assembly” (Nature Communications, 2022).
# Tests used:
# αS aggregation = target: T1, αS aggregation (Homo sapiens, UniProt P37840); test: ThT aggregation kinetic assay, de novo, WT αS; type: biochemical; conditions: 100 μM analog, 100 μM αS
# T1 construct: made in house; host or cells: Escherichia coli BL21(DE3), periplasm
# Description: The aggregation kinetics of αS was monitored using ThT fluorescence assay (λex = 450 nm and λem = 485 nm). To study the aggregation kinetics of αS, the ThT dye at a final concentration of 50 μM was added to 100 μM αS solution in the aggregation buffer (1 x PBS buffer) with and without various concentrations of SK-129 in a Costar black 96–well plate (Corning Inc., Kennebunk, ME). The small molecules were dissolved in dimethyl sulfoxide (DMSO; final DMSO concentration = 0.5%, v/v). The final volume in each well was 140 μL. The plate was incubated at 37 °C with 16 min shaking (434 rpm) and 44 min without shaking in an Infinite M200PRO plate reader (Tecan, Männedorf, Switzerland) and fluorescence was recorded after every hour. We used two methods to quantify the effect of molecules on the aggregation of αS; either we have reported the t50 (time required to reach 50% fluorescence of ThT), which was extracted by fitting the ThT curve as a sigmoidal fit or the absolute ThT fluorescence intensity was reported. […] In the second method, we determined the final ThT fluorescence intensity for the aggregation of αS/Aβ42(with or without ligands) as an average of three separate experiments. […]
# The aggregation kinetics of WT αS and αS variants were monitored and was carried out with a slightly modified protocol. […] The aggregation of proteins was monitored at the indicated times (See the main manuscript). […]
# NL5901 = test: αS-YFP inclusion count in C elegans NL5901; type: in vivo; conditions: NL5901, 15 μM SK-129, day 8 of adulthood; untreated ~33
# Description: The assay was carried out based on a previous protocol[57] with slight modifications. On day one, N2 and NL5901 strains were synchronized through the bleaching process involving egglay and the incubation of the eggs at an ambient temperature (~23 °C) on a solution of 3 mL NGM media in 60 mm culture plates (CytoOne, USA Scientific, Ocala, FL). The plates were seeded with 300 µL OP50 at an O.D. of 0.5 for 30 h. Simultaneously, a solution of 15 µM SK-129 (Stock solution concentration = 10 mM in DMSO) was made in M9 buffer and added to two sterilized 35 mm NGM solid media plates (Fisher Scientific, Pittsburgh, PA). The plates were already containing 2 mL of NGM solid media and 75 µM Fluorodeoxyuridine (FUDR) to prevent offspring in the worms. […] On day five, motility assay was conducted for worms under different conditions in duplicate using a WMicroTracker Arena plate reader (Phylumtech, Argentina) at ~23 °C for 1 h per day over a period of 12 days. […]
# The worms from the NL5901 strain were treated in the absence and presence of SK-129 (15 µM SK-129, stock solution concentration = 10 mM in DMSO) as described in the paralysis experiment. […] For each experiment, at least 15 worms were used, and the inclusions were counted manually, and each condition consisted of at least four independent experiments.
smiles,measurement,setting,value
COC(=O)c1cc(OCC(=O)O)c2cccc(NC(=O)c3cc(OC(C)C)c4cccc(NC(=O)c5cc(OCC(=O)O)c6cccc(NC(=O)c7cc(OC(C)C)c8cccc([N+](=O)[O-])c8n7)c6n5)c4n3)c2n1 [SK-129],antagonist activity against αS aggregation among analogs,αS aggregation,most potent antagonist
same,number of αS-YFP inclusions,NL5901,8–9 inclusions/C elegans
